# System: L5178Y
# Assay: Cytotoxicity against mouse L5178Y cells after 72 hrs by MTT assay
# Assay type: functional, cell-based
# Conditions: Mus musculus, L5178Y, 72 h; read-out: EC50; call rule not given here
row,Structure (SMILES),EC50
1,CCCCCc1cc(=O)c2c(CC(=O)OC)cc(O)cc2o1 [PESTALOTIOPSONE F],8.93 µg/mL

# Same assay, conditions: l5178y
row,Structure (SMILES),EC50
1,Cc1cc(O)cc2oc(C[C@H](C)O)cc(=O)c12,Not Active
2,CCCCCCCc1cc(=O)c2c(CC(=O)OC)cc(O)cc2o1 [PESTALOTIOPSONE A],Not Active
3,CCCCCCCc1cc(=O)c2c(CC(=O)OCC)cc(O)cc2o1 [PESTALOTIOPSONE B],Not Active
4,CCCCCCCc1cc(=O)c2c(CC(=O)O)cc(O)cc2o1 [PESTALOTIOPSONE C],Not Active
5,COC(=O)Cc1cc(O)cc2oc(CCCCCC(C)O)cc(=O)c12 (configuration not stated) [PESTALOTIOPSONE D],Not Active
6,CCOC(=O)Cc1cc(O)cc2oc(CCCCCC(C)O)cc(=O)c12 (configuration not stated) [PESTALOTIOPSONE E],Not Active

# Reference: ChEMBL document CHEMBL1151843, “Chromones from the endophytic fungus Pestalotiopsis sp. isolated from the chinese mangrove plant Rhizophora mucronata” (J Nat Prod, 2009)
